The record followed here is patent publication US10500146B2, “Composition for skin whitening comprising amorphigeni as effective ingredient” (INDUSTRY-ACADEMIC COOPERATION FOUNDATION GYEONGSANG …, priority 2015, dated 2019).

What all share (assay type): cell-based
Series [1] deals with B16F10 mouse melanoma cells. In words: Measurement of melanin content. As to the method: Measurement of melanin content was carried out by slightly modifying the method by Yang et al. (Yang et al., 2006, Acta pharmacologica Sinica 27, 1467-73). Specifically, B16F10 cells were inoculated into a 6-well plate and cultured for 24 hours. Thereafter, the cells were treated with amorphigeni and α-MSH, each at 1 μM, followed by culture for 48 hours. The cultured cells were collected after being subjected to trypsinization and dissolution in 1 N NaOH containing DMSO for 24 hours at 65° C. By using a microplate reader (Bio-Rad), melanin content was measured at 415 nm.
In order to see whether or not amorphigeni can suppress the pigmentation induced by α-MSH (melanocyte-stimulating hormone), B16F10 cells were treated with α-MSH and amorphigeni, either separately or simultaneously, followed by incubation for 72 hours. […] Namely, it was able confirm that, by reducing melanin content, amorphigeni of the present invention can suppress […].
Furthermore, after treating B16F10 melanin cells with α-MSH, amorphigeni, and 3MA all together for 48 hours, the melanin content and oxidation level of L-DOPA were measured (***P≤0.001).
In order to confirm whether or not amorphigeni causes degradation of melanosomes which have been previously produced by α-MSH, B16F10 melanin cells were treated for 48 hours with α-MSH to have synthesis of melanosomes. Thereafter, the cells were treated with amorphigeni for 48 hours, and melanin content was measured.
Furthermore, in order to see whether or not amorphigeni causes degradation of previously produced melanosomes via autophagy, B16F10 melanin cells were treated with α-MSH for 48 hours to have synthesis of melanosome. After that, the cells were treated with 3MA as an autophagy inhibitor for 48 hours. Then, the melanin content and protein expression level of tyrosinase and PMEL were measured (ns=no significance, *P≤0.05, **P≤0.01, ***P≤0.001).

Series [2] relates to B16F10 mouse melanoma cells. In words: Cell cycle measurement, PI staining, flow cytometer. The conditions noted are these: FIG. 3. A general note: A flow cytometer gives signals particle by particle.
Series [3] deals with B16F10 mouse melanoma cells. The experiment in a line: Cell viability (MTT analysis). The conditions noted are these: amorphigeni at 100 nM and 1600 nM, 24 hours, FIG. 2. How it is done: B16F10 cells were cultured for 24 hours in a 96-well plate. Thereafter, they were treated with amorphigeni at various concentrations, and cultured for 24 hours. Subsequently, a MTT solution (5 μg/mL) was added to the cells, which were then cultured for 3 hours. After removing the medium and treating the cells with DMSO, the cells were cultured for 20 minutes. By using a microplate reader (Bio-Rad), absorbance at 595 nm was measured.
In Example 1, to find out functional plant metabolites which induce depigmentation in melanin cells, amorphigeni was isolated from roots of Amorpha fruticosa (FIG. 1). To determine the cytotoxicity of amorphigeni, B16F10 cells were treated with amorphigeni at various concentrations followed by culture for 24 hours. Then, based on MTT (3-(4,5-dimethylthiazol-2-yl)-2,5-diphenyltetrazolium bromide) analysis, cell viability was determined.

As for `C=C(CO)C1Cc2c(ccc3c2OC2COc4cc(OC)c(OC)cc4C2C3=O)O1` (stereo not drawn) [amorphigeni], the “content of the previously formed melanin” value in series [1] (α-MSH 48 hours, then amorphigeni 48 hours, FIG. 10) is on record as “effectively lowered”. Besides, the “melanin content (previously formed)” value in series [1] (α-MSH 48 hours, then amorphigeni and 3MA 48 hours, versus α-MSH and amorphigeni, FIG. 11) was “increased again”. For the same compound, the melanin content result is given as “tend to decease” in series [1] (α-MSH and amorphigeni together versus α-MSH only, 72 hours, FIG. 4A); “increased again” in series [1] (α-MSH, amorphigeni and 3MA together, 48 hours, versus α-MSH and amorphigeni, FIG. 9A). Besides, the “cell death (cell cycle, PI staining)” value in series [2] is “without inducing any cell death”. Moreover, the “cytotoxicity (cell viability, MTT)” value in series [3] is “low cytotoxicity”.
